From US20070167526A1, “Topical mecamylamine formulations for ocular administration and uses thereof” (priority 2005, published 2007)
Where two headings read alike, the source gives them in different places.

Assays:
[1] = Distribution of mecamylamine into ocular tissue of rabbits following intravenous administration (Example 9); assay type: in vivo, New Zealand white rabbit; conditions: rabbit; for concentration at 1 h / concentration at 2 h / concentration at 4 h / concentration at 6 h / concentration at 0 h / concentration at 0.5 h: male, iv; for concentration at 1 h / concentration at 2 h / concentration at 4 h / concentration at 6 h / concentration at 0 h / concentration at 0.5 h / Concentration of mecamylamine in the retina/choroid, Mean: 15 mg/kg; for Concentration of mecamylamine in the retina/choroid, Mean: hour 6, listed as MEC
Description: Mecamylamine was administered intravenously to male New Zealand white rabbits (approximately 2.5-3 kg (Kralek Frams, Turlock, Calif.)) at a dose of 15 mg/kg (dissolved in sterile 0.9% NaCl for injection) over either over 60 minutes or 6 hours. Drug concentrations were measured as described previously at different time points in the plasma, the vitreous and at 6 hours in the retina-choroid tissue. For both groups, the vitreous(>0.1 mL) was withdrawn at 8 time points, with each animal being sampled no more than twice in total: pre-dose, 5 minutes, 15 minutes, 30 minutes, 1, 2, 4, and 6 hours. At all time points, only two vitreous samples were collected in order to minimize pain and damage to rabbit eyes, in compliance with IACUC guidelines. Plasma samples were also collected at the same 8 time points: pre-dose, 5 minutes, 15 minutes, 30 minutes, 1, 2, 4, and 6 hours, with duplicate samples collected at each time point. At 6 hours, the animals were sacrificed and the vitreous and retina-choroid tissue were collected from all animals. Clinical observations were recorded periodically throughout the study. Biological samples for this study were analyzed using an LC/MS/MS method (see Example 6) with a lower limit of quantitation of 0.5 ng/mL.

[2] = 6-hour ocular pharmacokinetics of 2% Mecamylamine GELRITE solution following topical instillation (Example 10); assay type: in vivo, New Zealand White rabbit; conditions: female, New Zealand White, rabbit, topical
Description: The time of each dose administration was recorded. There was no mortality in the treatment group.

CNC1(C)C2CCC(C2)C1(C)C (stereo not drawn) [mecamylamine, N-2,3,3-tetramethylbicyclo(2.2.1)heptan-2-amine]
concentration at 1 h ([1]; New Zealand White, plasma, 15 mg/kg i.v. 1 hr infusion, hour 1, read-out: Concentration of mecamylamine in the plasma, Mean): 1820 ng/mL
concentration at 2 h ([1]; New Zealand White, plasma, 15 mg/kg i.v. 1 hr infusion, hour 2, read-out: Concentration of mecamylamine in the plasma, Mean): 455 ng/mL
concentration at 4 h ([1]; New Zealand White, plasma, 15 mg/kg i.v. 1 hr infusion, hour 4, read-out: Concentration of mecamylamine in the plasma, Mean): 227 ng/mL
concentration at 6 h ([1]; New Zealand White, plasma, 15 mg/kg i.v. 1 hr infusion, hour 6, read-out: Concentration of mecamylamine in the plasma, Mean): 102 ng/mL
concentration at 1 h ([1]; New Zealand White, plasma, 15 mg/kg i.v. 6 hr infusion, hour 1, read-out: Concentration of mecamylamine in the plasma, Mean): 470 ng/mL
concentration at 2 h ([1]; New Zealand White, plasma, 15 mg/kg i.v. 6 hr infusion, hour 2, read-out: Concentration of mecamylamine in the plasma, Mean): 572 ng/mL
concentration at 4 h ([1]; New Zealand White, plasma, 15 mg/kg i.v. 6 hr infusion, hour 4, read-out: Concentration of mecamylamine in the plasma, Mean): 717 ng/mL
concentration at 6 h ([1]; New Zealand White, plasma, 15 mg/kg i.v. 6 hr infusion, hour 6, read-out: Concentration of mecamylamine in the plasma, Mean): 313 ng/mL
concentration at 6 h ([1]; New Zealand White, retina/choroid, 15 mg/kg i.v. 1 hr infusion, hour 6, read-out: Concentration of mecamylamine in the retina/choroid, Mean): 261 ng/mL
concentration at 6 h ([1]; New Zealand White, retina/choroid, 15 mg/kg i.v. 6 hr infusion, hour 6, read-out: Concentration of mecamylamine in the retina/choroid, Mean): 1530 ng/mL
concentration at 0 h ([1]; New Zealand white, plasma, 15 mg/kg i.v. 1 hr infusion, hour 0, read-out: Concentration of mecamylamine in the plasma, Mean): 48.7 ng/mL
concentration at 0.5 h ([1]; New Zealand white, plasma, 15 mg/kg i.v. 1 hr infusion, hour 0.5, read-out: Concentration of mecamylamine in the plasma, Mean): 5330 ng/mL
concentration at 0 h ([1]; New Zealand white, plasma, 15 mg/kg i.v. 6 hr infusion, hour 0, read-out: Concentration of mecamylamine in the plasma, Mean): 0 ng/mL
concentration at 0.5 h ([1]; New Zealand white, plasma, 15 mg/kg i.v. 6 hr infusion, hour 0.5, read-out: Concentration of mecamylamine in the plasma, Mean): 350 ng/mL
concentration at 0 h ([1]; New Zealand white, vitreous humor, 15 mg/kg i.v. 1 hr infusion, hour 0, read-out: Concentration of mecamylamine in the vitreous humor, Mean): 43 ng/mL
concentration at 0.5 h ([1]; New Zealand white, vitreous humor, 15 mg/kg i.v. 1 hr infusion, hour 0.5, read-out: Concentration of mecamylamine in the vitreous humor, Mean): 717 ng/mL
concentration at 1 h ([1]; New Zealand white, vitreous humor, 15 mg/kg i.v. 1 hr infusion, hour 1, read-out: Concentration of mecamylamine in the vitreous humor, Mean): 1110 ng/mL
concentration at 2 h ([1]; New Zealand white, vitreous humor, 15 mg/kg i.v. 1 hr infusion, hour 2, read-out: Concentration of mecamylamine in the vitreous humor, Mean): 900 ng/mL
concentration at 4 h ([1]; New Zealand white, vitreous humor, 15 mg/kg i.v. 1 hr infusion, hour 4, read-out: Concentration of mecamylamine in the vitreous humor, Mean): 430 ng/mL
concentration at 6 h ([1]; New Zealand white, vitreous humor, 15 mg/kg i.v. 1 hr infusion, hour 6, read-out: Concentration of mecamylamine in the vitreous humor, Mean): 174 ng/mL
concentration at 0 h ([1]; New Zealand white, vitreous humor, 15 mg/kg i.v. 6 hr infusion, hour 0, read-out: Concentration of mecamylamine in the vitreous humor, Mean): 5.6 ng/mL
concentration at 0.5 h ([1]; New Zealand white, vitreous humor, 15 mg/kg i.v. 6 hr infusion, hour 0.5, read-out: Concentration of mecamylamine in the vitreous humor, Mean): 59.9 ng/mL
concentration at 1 h ([1]; New Zealand white, vitreous humor, 15 mg/kg i.v. 6 hr infusion, hour 1, read-out: Concentration of mecamylamine in the vitreous humor, Mean): 138 ng/mL
concentration at 2 h ([1]; New Zealand white, vitreous humor, 15 mg/kg i.v. 6 hr infusion, hour 2, read-out: Concentration of mecamylamine in the vitreous humor, Mean): 223 ng/mL
concentration at 4 h ([1]; New Zealand white, vitreous humor, 15 mg/kg i.v. 6 hr infusion, hour 4, read-out: Concentration of mecamylamine in the vitreous humor, Mean): 408 ng/mL
concentration at 6 h ([1]; New Zealand white, vitreous humor, 15 mg/kg i.v. 6 hr infusion, hour 6, read-out: Concentration of mecamylamine in the vitreous humor, Mean): 458 ng/mL
Concentration of mecamylamine in the retina/choroid, Mean ([1]; 15 mg/kg i.v. 1 hr infusion): 260.8 ng/mL
Concentration of mecamylamine in the retina/choroid, Mean ([1]; 15 mg/kg i.v. 6 hr infusion): 1534.3 ng/mL
peak mean plasma concentration ([1]; 15 mg/kg i.v. over longer period (6 hours)): 717 ng/mL
time of peak plasma levels ([1]; 15 mg/kg i.v. over shorter period): ≤ 0.5 h
peak mean plasma concentration ([1]; 15 mg/kg i.v. over shorter period (60 minutes)): 5,331 ng/mL
highest mean level in the vitreous ([1]; longer infusion period, seen at 6 hours): 458 ng/mL
highest mean level in the vitreous ([1]; shorter infusion period, seen at 1 hour): 1110 ng/mL
concentration at 1 h ([2]; aqueous humor, 2% in GELRITE, 2 × 50 μL, OS (unilateral) treated eye, 1 hr, read-out: Mecamylamine concentration in Aqueous humor, Mean): 2510 ng/g
concentration at 1 h ([2]; aqueous humor, 2% in GELRITE, 2 × 50 μL, OU (bilateral), 1 hr, read-out: Mecamylamine concentration in Aqueous humor, Mean): 3910 ng/g
concentration at 3 h ([2]; aqueous humor, 2% in GELRITE, 2 × 50 μL, OU (bilateral), 3 hr, read-out: Mecamylamine concentration in Aqueous humor, Mean): 500 ng/g
concentration at 6 h ([2]; aqueous humor, 2% in GELRITE, 2 × 50 μL, OU (bilateral), 6 hr, read-out: Mecamylamine concentration in Aqueous humor, Mean): 48.9 ng/g
concentration at 1 h ([2]; aqueous humor, fellow (vehicle) eye of unilaterally dosed animals, 1 hr, read-out: Mecamylamine concentration in Aqueous humor, Mean): 9.7 ng/g
concentration at 1 h ([2]; blood cell fraction, group MEC OS 1 hr, Post, read-out: Mecamylamine concentration in blood Cell Fraction, Mean): 15 ng/mL
concentration at 1 h ([2]; blood cell fraction, group MEC OU 1 hr, Post, read-out: Mecamylamine concentration in blood Cell Fraction, Mean): 33.1 ng/mL
concentration at 3 h ([2]; blood cell fraction, group MEC OU 3 hr, Post, read-out: Mecamylamine concentration in blood Cell Fraction, Mean): 7 ng/mL
concentration at 6 h ([2]; blood cell fraction, group MEC OU 6 hr, Post, read-out: Mecamylamine concentration in blood Cell Fraction, Mean): 1.2 ng/mL
